EP2092824A1, “Heterocyclyl pyrimidines” (Bayer CropScience AG, priority 2008, dated 2009)

Key:
[1] = logP determination by HPLC on reversed-phase column (EEC-Directive 79/831 Annex V.A8); assay type: physicochemical; conditions: c18 hplc, C 18 reversed phase, 43°C, LC-MS at pH 2,7 (0,1 % aqueous formic acid / acetonitrile)
Method: Die Bestimmung der in den Herstellungsbeispielen angegebenen logP-Werte erfolgte gemäß EEC-Directive 79/831 Annex V.A8 durch HPLC (High Performance Liquid Chromatography) an einer Phasenumkehrsäule (C 18). Temperatur: 43°C.
Die Bestimmung erfolgte mit der LC-MS bei pH 2,7 mit 0,1 % wässriger Ameisensäure und Acetonitril (enthält 0,1 % Ameisensäure) als Eluenten; linearer Gradient von 10 % Acetonitril bis 95 % Acetonitril.
Die Eichung erfolgte mit unverzweigten Alkan-2-onen (mit 3 bis 16 Kohlenstoffatomen), deren logP-Werte bekannt sind (Bestimmung der logP-Werte anhand der Retentionszeiten durch lineare Interpolation zwischen zwei aufeinanderfolgenden Alkanonen).

Phaedon cochleariae = assay: Phaedon test (PHAECO spray treatment); assay type: in vivo; conditions: foliar, Aufwandmenge 500 g/ha, sprayed Chinese cabbage leaf discs, larvae, 100 % = all beetle larvae killed, read-out: Wirkung
Source text: Phaedon-Test (PHAECO Spritzbehandlung)
(§1) Zur Herstellung einer zweckmäßigen Wirkstoffzubereitung vermischt man 1 Gewichtsteil Wirkstoff mit den angegebenen Mengen Lösungsmittel und Emulgator und verdünnt das Konzentrat mit emulgatorhaltigem Wasser auf die gewünschte Konzentration.
Chinakohlblattscheiben (Brassica pekinensis) werden mit einer Wirkstoffzubereitung der gewünschten Konzentration gespritzt und nach dem Abtrocknen mit Larven des Meerrettichblattkäfers (Phaedon cochleariae) besetzt.
Nach der gewünschten Zeit wird die Wirkung in % bestimmt. Dabei bedeutet 100 %, dass alle Käferlarven abgetötet wurden; 0 % bedeutet, dass keine Käferlarven abgetötet wurden.

Myzus persicae = assay: Myzus test (MYZUPE spray treatment); assay type: in vivo; conditions: foliar, Aufwandmenge 500 g/ha, sprayed Chinese cabbage leaf discs (Brassica pekinensis) infested with all stages, 100 % = all aphids killed, read-out: Wirkung
Source text: Myzus-Test (MYZUPE Spritzbehandlung)
as §1
Chinakohlblattscheiben (Brassica pekinensis), die von allen Stadien der Grünen Pfirsichblattlaus (Myzus persicae) befallen sind, werden mit einer Wirkstoffzubereitung der gewünschten Konzentration gespritzt.
Nach der gewünschten Zeit wird die Wirkung in % bestimmt. Dabei bedeutet 100 %, dass alle Blattläuse abgetötet wurden; 0 % bedeutet, dass keine Blattläuse abgetötet wurden.

Sphaerotheca fuliginea = assay: Sphaerotheca test (cucumber) / protective; assay type: in vivo; conditions: Konzentration an Wirkstoff 500ppm, cucumber plants, evaluation 7 days after inoculation, 100 % = no infestation
Source text: Sphaerotheca-Test (Gurke) / protektiv
(§2) Zur Herstellung einer zweckmäßigen Wirkstoffzubereitung vermischt man 1 Gewichtsteil Wirkstoff mit den angegebenen Mengen Lösungsmittel und Emulgator und verdünnt das Konzentrat mit Wasser auf die gewünschte Konzentration.
Zur Prüfung auf protektive Wirksamkeit bespritzt man junge Gurkenpflanzen mit der Wirkstoffzubereitung in der angegebenen Aufwandmenge. 1 Tag nach der Behandlung werden die Pflanzen mit einer Sporensuspension von Sphaerotheca fuliginea inokuliert. Anschließend werden die Pflanzen in einem Gewächshaus bei 70 % relativer Luftfeuchtigkeit und einer Temperatur von 23 °C aufgestellt.
7 Tage nach der Inokulation erfolgt die Auswertung. Dabei bedeutet 0 % ein Wirkungsgrad, der demjenigen der Kontrolle entspricht, während ein Wirkungsgrad von 100 % bedeutet, daß kein Befall beobachtet wird.

Puccinia recondita = assay: Puccinia test (wheat) / protective; assay type: in vivo; conditions: Konzentration an Wirkstoff 500ppm, wheat plants, evaluation 7-9 days after inoculation, 100 % = no infestation
Source text: Puccinia-Test (Weizen) / protektiv
as §2
Zur Prüfung auf protektive Wirksamkeit bespritzt man junge Weizenpflanzen mit der Wirkstoffzubereitung in der angegebenen Aufwandmenge. 1 Tag nach der Behandlung werden die Pflanzen mit einer Sporensuspension von Puccinia recondita inokuliert und stehen dann 48h bei 100% rel. Feuchte und 22°C. Anschließend stehen die Pflanzen bei 80% rel. Luftfeuchtigkeit und einer Temperatur von 20 °C.
7-9 Tage nach der Inokulation erfolgt die Auswertung. Dabei bedeutet 0 % ein Wirkungsgrad, der demjenigen der Kontrolle entspricht, während ein Wirkungsgrad von 100 % bedeutet, dass kein Befall beobachtet wird.

Meloidogyne incognita = assay: Meloidogyne test (MELGIN spray treatment); assay type: in vivo; conditions: Aufwandmenge 4 ppm; nematicidal effect by gall formation on lettuce roots; 100 % = no galls
Source text: Meloidogyne-Test (MELGIN Spritzbehandlung)
Zur Herstellung einer zweckmäßigen Wirkstoffzubereitung vermischt man 1 Gewichtsteil Wirkstoff mit der angegebenen Menge Lösungsmittel und verdünnt das Konzentrat mit Wasser auf die gewünschte Konzentration.
Gefäße werden mit Sand, Wirkstofflösung, Meloidogyne incognita-Ei-Larven-Suspension und Salatsamen gefüllt. Die Salatsamen keimen und die Pflänzchen entwickeln sich. An den Wurzeln entwickeln sich die Gallen.
Nach der gewünschten Zeit wird die nematizide Wirkung an Hand der Gallenbildung in % bestimmt. Dabei bedeutet 100 %, dass keine Gallen gefunden wurden; 0 % bedeutet, dass die Zahl der Gallen an den behandelten Pflanzen der der unbehandelten Kontrolle entspricht.

chromatographic logP [1]	Structure (SMILES)	mortality at 500 g/ha (Phaedon cochleariae)	mortality at 500 g/ha (Myzus persicae)	also measured
2.96	CC(C)Nc1nc(S(C)(=O)=O)nc(Cl)c1-c1ccccc1Cl [II-1, 4-Chlor-5-(2-chlorphenyl)-6-isopropylamino-2-methylsulfonyl-pyrimidin]	–	–	–
4.52	CSc1nc(Cl)c(-c2ccccc2Cl)c(Cl)n1 [4,6-Dichlor-5-(2-chlorphenyl)-2-(methylthio)pyrimidin]	–	–	–
2.55	CC(C)Nc1nc([S+](C)[O-])nc(Cl)c1-c1ccccc1Cl (centres unmarked) [4-Chlor-5-(2-chlorphenyl)-6-(isopropylamino)-2-(methylsulfinyl)-pyrimidin]	–	–	–
–	Cc1cc(C(=O)NS(C)(=O)=O)nn1-c1nc(Cl)c(-c2ccccc2)c(NC(C)C)n1 [I-4]	≥ 80%	–	–
–	CC(C)Nc1nc(-n2ccc(C(=O)O)n2)nc(Cl)c1-c1ccccc1Cl [X-1, 1-[4-Chlor-5-(2-chlorphenyl)-6-(isopropylamino)pyrimidin-2-yl]-1H-pyrazol-3-carbonsäure]	≥ 80%	≥ 80%	–
–	CC(C)Nc1nc(-n2ccc(C(=O)NS(C)(=O)=O)n2)nc(Cl)c1-c1ccccc1Cl [I-2, 1-[4-Chlor-5-(2-chlorphenyl)-6-(isopropylamino)pyrimidin-2-yl]-N-(methylsulfonyl)-1H-pyrazol-3-carboxamid]	≥ 80%	≥ 80%	Wirkungsgrad (Sphaerotheca fuliginea): ≥ 70%; Wirkungsgrad (Puccinia recondita): ≥ 70%
4.52	CSc1nc(Cl)c(-c2ccccc2Cl)c(NC(C)C)n1 [4-Chlor-5-(2-chlorphenyl)-6-(isopropylamino)-2-(methylthio)-pyrimidin]	–	–	–
–	Cc1cc(C(=O)NS(C)(=O)=O)nn1-c1nc(Cl)c(-c2ccccc2Cl)c(NC(C)C)n1 [I-3, 1-[4-Chlor-5-(2-chlorphenyl)-6-(isopropylamino)pyrimidin-2-yl]-5-methyl-N-(methylsulfonyl)-1H-pyrazol-3-carboxamid]	≥ 80%	≥ 80%	Wirkung (Meloidogyne incognita): ≥ 80%; Wirkungsgrad (Sphaerotheca fuliginea): ≥ 70%; Wirkungsgrad (Puccinia recondita): ≥ 70%
–	Cc1cc(C(=O)O)nn1-c1nc(Cl)c(-c2c(F)cc(F)cc2F)c(NC(C)C)n1 [X-5]	≥ 80%	≥ 80%	–
–	Cc1cc(C(=O)O)nn1-c1nc(Cl)c(-c2ccccc2)c(NC(C)C)n1 [X-3]	≥ 80%	–	–
–	Cc1cc(C(=O)O)nn1-c1nc(Cl)c(-c2ccccc2Cl)c(NC(C)C)n1 [X-2, 1-[4-Chlor-5-(2-chlorphenyl)-6-(isopropylamino)pyrimidin-2-yl]-5-methyl-1H-pyrazol-3-carbonsäure]	≥ 80%	≥ 80%	–
–	Cc1cc(C(=O)NS(C)(=O)=O)nn1-c1nc(Cl)c(-c2c(F)cc(F)cc2F)c(NC(C)C)n1 [I-6]	≥ 80%	≥ 80%	–
